# Assay results: patent US20260256792A1, “TREATMENT OF CHRONIC SPONTANEOUS URTICARIA BY ADMINISTERING (R)-2-[3-[4-AMINO-3-(2-FLUORO-4-PHENOXY-PHENYL)PYRAZOLO[3,4-D]PYRIMIDIN-1-YL]PIPERIDINE-1-CARBONYL]-4-METHYL-4-[4-(OXETAN-3-YL)PIPERAZIN-1-YL]PENT-2-ENENITRILE” (priority 2023, published 2026)
# System: moderate-to-severe chronic spontaneous urticaria (CSU)
# Assay: Phase 2 CSU study: Patient Global Impression of Severity (PGIS)
# Assay type: in vivo, human
# Conditions: for PGIS Change from baseline Mean (SD) / PGIS Change from baseline Median / PGIS Median / PGIS Percent change from baseline Mean (SD) / PGIS Percent change from baseline Median / PGIS category Mild, patients / PGIS category Moderate, patients / PGIS category None, patients / PGIS category Severe, patients: omalizumab-naïve population; for PGIS % Change difference for rilzabrutinib vs. placebo LS Mean (95% CI) / PGIS % Change from baseline LS Mean (SE) / PGIS Change difference for rilzabrutinib vs. placebo LS Mean (95% CI) / PGIS Change from baseline LS Mean (SE): omalizumab-naïve, ANCOVA
# Description: The study comprises a 12 week, randomized, double-blind, placebo-controlled, multi-center, dose-ranging efficacy and safety phase, followed by a 40 week open label extension (OLE) phase (see FIG. 1).
# The study consists of three phases and an optional OLE phase.
# The PGIS is a 1-item measure that asks participants to provide a self-assessment of their overall CSU severity for the past week on a 4 point scale. Response choices are: “None”, “Mild”, “Moderate” and “Severe”. The PGIC is a 1-item measure that asks the participant to provide a self-assessment of overall change in their CSU since the participant started taking the study medication on a 7-point scale. The response options range from “Very Much Better” to “Very Much Worse.” Patients were to complete questionnaires for the 2 items during their site visit.
compound,measurement,setting,value
"CC(C)(C=C(C#N)C(=O)N1CCC[C@@H](n2nc(-c3ccc(Oc4ccccc4)cc3F)c3c(N)ncnc32)C1)N1CCN(C2COC2)CC1 [rilzabrutinib, (R)-2-[3-[4-amino-3-(2-fluoro-4-phenoxy-phenyl)pyrazolo[3,4-d]pyrimidin-1-yl]piperidine-1-carbonyl]-4-methyl-4-[4-(oxetan-3-yl)piperazin-1-yl]pent-2-enenitrile]",quality of life as measured by PGIS,400 mg TID,improvement
same,PGIS Change from baseline Mean (SD),"Week 2, 400 mg BID",−0.65
same,PGIS Change from baseline Median,"Week 2, 400 mg BID",0.00
same,PGIS Median,"Week 2, 400 mg BID",2.00
same,PGIS Percent change from baseline Mean (SD),"Week 2, 400 mg BID",−23.12%
same,PGIS Percent change from baseline Median,"Week 2, 400 mg BID",0.00%
same,"PGIS category Mild, patients","Week 2, 400 mg BID",8 (25.8)
same,"PGIS category Moderate, patients","Week 2, 400 mg BID",14 (45.2)
same,"PGIS category None, patients","Week 2, 400 mg BID",5 (16.1)
same,"PGIS category Severe, patients","Week 2, 400 mg BID",4 (12.9)
same,PGIS % Change difference for rilzabrutinib vs. placebo LS Mean (95% CI),"Week 2, 400 mg BID","−7.56 (−24.17, 9.05) %"
same,PGIS % Change from baseline LS Mean (SE),"Week 2, 400 mg BID",−26.23 (6.28) %
same,PGIS Change difference for rilzabrutinib vs. placebo LS Mean (95% CI),"Week 2, 400 mg BID","−0.26 (−0.63, 0.11)"
same,PGIS Change from baseline LS Mean (SE),"Week 2, 400 mg BID",−0.76 (0.14)
same,PGIS Change from baseline Mean (SD),"Week 2, 400 mg QPM",−0.48
same,PGIS Change from baseline Median,"Week 2, 400 mg QPM",0.00
same,PGIS Median,"Week 2, 400 mg QPM",2.00
same,PGIS Percent change from baseline Mean (SD),"Week 2, 400 mg QPM",−17.68%
same,PGIS Percent change from baseline Median,"Week 2, 400 mg QPM",0.00%
same,"PGIS category Mild, patients","Week 2, 400 mg QPM",8 (24.2)
same,"PGIS category Moderate, patients","Week 2, 400 mg QPM",17 (51.5)
same,"PGIS category None, patients","Week 2, 400 mg QPM",0
same,"PGIS category Severe, patients","Week 2, 400 mg QPM",8 (24.2)
same,PGIS % Change difference for rilzabrutinib vs. placebo LS Mean (95% CI),"Week 2, 400 mg QPM","0.86 (−15.86, 17.59) %"
same,PGIS % Change from baseline LS Mean (SE),"Week 2, 400 mg QPM",−17.80 (6.05) %
same,PGIS Change difference for rilzabrutinib vs. placebo LS Mean (95% CI),"Week 2, 400 mg QPM","0.03 (−0.34, 0.41)"
same,PGIS Change from baseline LS Mean (SE),"Week 2, 400 mg QPM",−0.47 (0.14)
same,PGIS Change from baseline Mean (SD),"Week 2, 400 mg TID",−0.94
same,PGIS Change from baseline Median,"Week 2, 400 mg TID",1.00
same,PGIS Median,"Week 2, 400 mg TID",1.00
same,PGIS Percent change from baseline Mean (SD),"Week 2, 400 mg TID",−41.92%
same,PGIS Percent change from baseline Median,"Week 2, 400 mg TID",−50.00%
same,"PGIS category Mild, patients","Week 2, 400 mg TID",17 (50.0)
same,"PGIS category Moderate, patients","Week 2, 400 mg TID",9 (26.5)
same,"PGIS category None, patients","Week 2, 400 mg TID",4 (11.8)
same,"PGIS category Severe, patients","Week 2, 400 mg TID",4 (11.8)
same,PGIS % Change difference for rilzabrutinib vs. placebo LS Mean (95% CI),"Week 2, 400 mg TID","−22.00 (−38.77, −5.22) %"
same,PGIS % Change from baseline LS Mean (SE),"Week 2, 400 mg TID",−40.66 (6.06) %
same,PGIS Change difference for rilzabrutinib vs. placebo LS Mean (95% CI),"Week 2, 400 mg TID","−0.46 (−0.83, −0.09)"
same,PGIS Change from baseline LS Mean (SE),"Week 2, 400 mg TID",−0.96 (0.13)
same,PGIS Change from baseline Mean (SD),"Week 4, 400 mg BID",−0.70
same,PGIS Change from baseline Median,"Week 4, 400 mg BID",0.00
same,PGIS Median,"Week 4, 400 mg BID",2.00
same,PGIS Percent change from baseline Mean (SD),"Week 4, 400 mg BID",−27.78%
same,PGIS Percent change from baseline Median,"Week 4, 400 mg BID",0.00%
same,"PGIS category Mild, patients","Week 4, 400 mg BID",10 (30.3)
same,"PGIS category Moderate, patients","Week 4, 400 mg BID",15 (45.5)
same,"PGIS category None, patients","Week 4, 400 mg BID",5 (15.2)
same,"PGIS category Severe, patients","Week 4, 400 mg BID",3 (9.1)
same,PGIS % Change difference for rilzabrutinib vs. placebo LS Mean (95% CI),"Week 4, 400 mg BID","−1.31 (−17.26, 14.65) %"
same,PGIS % Change from baseline LS Mean (SE),"Week 4, 400 mg BID",−29.83 (5.99) %
same,PGIS Change difference for rilzabrutinib vs. placebo LS Mean (95% CI),"Week 4, 400 mg BID","−0.12 (−0.48, 0.25)"
same,PGIS Change from baseline LS Mean (SE),"Week 4, 400 mg BID",−0.81 (0.13)
same,PGIS Change from baseline Mean (SD),"Week 4, 400 mg QPM",−0.65
same,PGIS Change from baseline Median,"Week 4, 400 mg QPM",−0.50
same,PGIS Median,"Week 4, 400 mg QPM",2.00
same,PGIS Percent change from baseline Mean (SD),"Week 4, 400 mg QPM",−25.49%
same,PGIS Percent change from baseline Median,"Week 4, 400 mg QPM",−16.67%
same,"PGIS category Mild, patients","Week 4, 400 mg QPM",10 (29.4)
same,"PGIS category Moderate, patients","Week 4, 400 mg QPM",15 (44.1)
same,"PGIS category None, patients","Week 4, 400 mg QPM",1 (2.9)
same,"PGIS category Severe, patients","Week 4, 400 mg QPM",8 (23.5)
same,PGIS % Change difference for rilzabrutinib vs. placebo LS Mean (95% CI),"Week 4, 400 mg QPM","3.06 (−12.83, 18.95) %"
same,PGIS % Change from baseline LS Mean (SE),"Week 4, 400 mg QPM",−25.46 (5.77) %
same,PGIS Change difference for rilzabrutinib vs. placebo LS Mean (95% CI),"Week 4, 400 mg QPM","0.09 (−0.27, 0.44)"
same,PGIS Change from baseline LS Mean (SE),"Week 4, 400 mg QPM",−0.61 (0.13)
same,PGIS Change from baseline Mean (SD),"Week 4, 400 mg TID",−1.07
same,PGIS Change from baseline Median,"Week 4, 400 mg TID",1.00
same,PGIS Median,"Week 4, 400 mg TID",1.00
same,PGIS Percent change from baseline Mean (SD),"Week 4, 400 mg TID",−43.10%
same,PGIS Percent change from baseline Median,"Week 4, 400 mg TID",−50.00%
same,"PGIS category Mild, patients","Week 4, 400 mg TID",15 (51.7)
same,"PGIS category Moderate, patients","Week 4, 400 mg TID",9 (31.0)
same,"PGIS category None, patients","Week 4, 400 mg TID",3 (10.3)
same,"PGIS category Severe, patients","Week 4, 400 mg TID",2 (6.9)
same,PGIS % Change from baseline LS Mean (SE),"Week 4, 400 mg TID",−41.04 (6.24) %
same,PGIS Change difference for rilzabrutinib vs. placebo LS Mean (95% CI),"Week 4, 400 mg TID","−0.27 (−0.62, 0.09)"
same,PGIS Change from baseline LS Mean (SE),"Week 4, 400 mg TID",−0.96 (0.13)
